These results are taken from patent US20120322863A1, “PREVENTION OF AND COUNTERMEASURES AGAINST MITOCHONDRIAL DISEASE” (priority 2004, published 2012).

The subject of the data set is patient with mitochondrial disease. Nature of the data set: Clinical Example 2: administration to a patient with mitochondrial disease. In kind it is in vivo, human. Conditions: agent dose in terms of L-arginine 0.5 g/kg/hr. The method, then:
The agent for treating mitochondrial disease of the present invention was administered to a patient with mitochondrial disease at a dose in terms of L-arginine of 0.5 g/kg/hr.

For the compound `N=C(N)NCCC[C@H](N)C(=O)O` [L-arginine alone, L-arginine], the “effects on the symptoms of the mitochondrial disease” value is recorded as “did not sufficiently exhibit” and the vomiting result was “repetitive vomiting”.
